Measurements reported in patent US20260053811A1, “METHODS OF TREATING HYPERTENSION IN OBESE SUBJECTS” (Mineralys Therapeutics, Inc., priority 2022, published 2026).

System: hypertensive subjects
Experiment: Vital signs, physical examination, ECG parameters
Type: in vivo, human
Details: Parts 1 and 2
From the text: Safety endpoints of this study are: • (a) Incidence and severity of all spontaneously reported adverse events (AEs) • (b) Changes in vital signs (standing SBP, standing DBP, body temperature, heart rate, and respiratory rate) • (c) Changes in electrocardiogram parameters (including cardiac intervals: PR, QRS, QT, and corrected QT interval using Fridericia's formula) • (d) Changes in clinical laboratory assessments (hematology, chemistry, coagulation, and urinalysis) • (e) Change in office-measured SBP from Study Week 8 (end-of-treatment period to end of follow up (i.e. end of Study Week 12 for Part 1 and end of Study 10 for Part 2).

How did the “Vital signs, physical examination, ECG parameters” value turn out when `CC(=O)N[C@H]1CC[C@H](NC(=O)CN2CCN(c3nncc(-c4ccc(C)cc4)n3)CC2)CC1` [Compound A HBr] was run?
The value was “no notable findings”.
